Measured values published in the NIST ThermoML archive (doi:10.1016/j.fluid.2006.05.032).

Assay: xn = mol fraction of the nth substance listed
Conditions: Liquid, Vibrating tube method

Cc1ccccc1 [toluene] + CCCO
mass density [kg/m3]
Conditions | x2 = 0 | x2 = 0.125 | x2 = 0.25 | x2 = 0.375 | x2 = 0.5 | x2 = 0.625 | x2 = 0.75 | x2 = 0.875
323.15 K, 35000 kPa | 866 | 859.3 | 853.3 | 847.1 | 840.6 | 833.4 | 825.6 | 816.4
323.15 K, 40000 kPa | 869.4 | 862.8 | 856.5 | 850.3 | 843.9 | 836.7 | 829 | 819.8
323.15 K, 45000 kPa | 872.5 | 865.9 | 859.8 | 853.6 | 847.1 | 840 | 832.2 | 822.9
323.15 K, 50000 kPa | 875.7 | 869.2 | 863 | 856.8 | 850.3 | 843.1 | 835.3 | 826
323.15 K, 55000 kPa | 878.7 | 872.2 | 866 | 859.8 | 853.3 | 846.1 | 838.3 | 829
323.15 K, 60000 kPa | 881.7 | 875.1 | 869 | 862.7 | 856.2 | 848.9 | 841.1 | 831.9
323.15 K, 65000 kPa | 884.6 | 878.1 | 871.9 | 865.6 | 859.1 | 851.8 | 844 | 834.6
333.15 K, 100 kPa | 828.8 | 822 | 815.6 | 809.5 | 803.2 | 796.3 | 788.7 | 779.8
333.15 K, 5000 kPa | 833.5 | 826.8 | 820.5 | 814.3 | 808 | 801.1 | 793.4 | 784.4
333.15 K, 10000 kPa | 838.2 | 831.4 | 825 | 818.9 | 812.6 | 805.8 | 798.1 | 789.1
333.15 K, 15000 kPa | 842.6 | 835.7 | 829.4 | 823.3 | 817 | 810.1 | 802.4 | 793.4
333.15 K, 20000 kPa | 846.6 | 839.8 | 833.6 | 827.4 | 821.1 | 814.2 | 806.6 | 797.5
333.15 K, 25000 kPa | 850.5 | 843.8 | 837.6 | 831.4 | 825 | 818.2 | 810.5 | 801.4
333.15 K, 30000 kPa | 854.3 | 847.6 | 841.4 | 835.2 | 828.8 | 821.9 | 814.1 | 805
333.15 K, 35000 kPa | 857.9 | 851.3 | 845 | 838.9 | 832.5 | 825.6 | 817.8 | 808.6
333.15 K, 40000 kPa | 861.4 | 854.8 | 848.6 | 842.4 | 836 | 829.1 | 821.2 | 812
333.15 K, 45000 kPa | 864.8 | 858.2 | 852 | 845.8 | 839.4 | 832.4 | 824.6 | 815.4
333.15 K, 50000 kPa | 868.1 | 861.5 | 855.2 | 849 | 842.7 | 835.6 | 827.8 | 818.6
333.15 K, 55000 kPa | 871.4 | 864.6 | 858.4 | 852.2 | 845.8 | 838.8 | 831 | 821.9
333.15 K, 60000 kPa | 874.5 | 867.8 | 861.4 | 855.3 | 848.9 | 841.8 | 834 | 824.8
333.15 K, 65000 kPa | 877.5 | 870.7 | 864.5 | 858.3 | 851.9 | 844.8 | 836.9 | 827.7
343.15 K, 100 kPa | 819.4 | 812.2 | 805.5 | 799.4 | 793.3 | 786.5 | 779.1 | 770.7
343.15 K, 5000 kPa | 824.5 | 817.3 | 810.8 | 804.6 | 798.4 | 791.7 | 784.2 | 775.8
343.15 K, 10000 kPa | 829.3 | 822.3 | 815.8 | 809.6 | 803.4 | 796.6 | 789.1 | 780.6
343.15 K, 15000 kPa | 833.9 | 826.9 | 820.4 | 814.3 | 808.1 | 801.3 | 793.8 | 785.1
343.15 K, 20000 kPa | 838.1 | 831.3 | 824.9 | 818.7 | 812.4 | 805.7 | 798.1 | 789.5
343.15 K, 25000 kPa | 842.3 | 835.5 | 829.1 | 822.9 | 816.6 | 809.8 | 802.2 | 793.5
343.15 K, 30000 kPa | 846.2 | 839.5 | 833.1 | 827 | 820.7 | 813.9 | 806.2 | 797.4
343.15 K, 35000 kPa | 850.1 | 843.2 | 837 | 830.7 | 824.5 | 817.6 | 809.9 | 801.1
343.15 K, 40000 kPa | 853.7 | 847 | 840.6 | 834.4 | 828.2 | 821.4 | 813.5 | 804.6
343.15 K, 45000 kPa | 857.4 | 850.4 | 844.3 | 838 | 831.8 | 824.9 | 817.2 | 808.2
343.15 K, 50000 kPa | 860.8 | 853.9 | 847.7 | 841.4 | 835.2 | 828.2 | 820.5 | 811.4
343.15 K, 55000 kPa | 864.2 | 857.1 | 851 | 844.8 | 838.5 | 831.5 | 823.7 | 814.7
343.15 K, 60000 kPa | 867.4 | 860.5 | 854.3 | 848 | 841.8 | 834.8 | 826.9 | 817.7
343.15 K, 65000 kPa | 870.3 | 863.6 | 857.4 | 851.1 | 844.9 | 837.8 | 829.9 | 820.7
353.15 K, 100 kPa | 809.7 | 802.7 | 795.9 | 789.9 | 783.8 | 777 | 769 | 760.6
353.15 K, 5000 kPa | 815.1 | 808 | 801.4 | 795.3 | 789.2 | 782.3 | 774.4 | 766.1
353.15 K, 10000 kPa | 820.3 | 813.3 | 806.7 | 800.6 | 794.6 | 787.7 | 779.6 | 771.2
353.15 K, 15000 kPa | 825.3 | 818.2 | 811.6 | 805.5 | 799.5 | 792.6 | 784.6 | 776.2
353.15 K, 20000 kPa | 829.9 | 822.9 | 816.3 | 810.2 | 804.2 | 797.3 | 789.1 | 780.7
353.15 K, 25000 kPa | 834 | 827.3 | 820.8 | 814.7 | 808.7 | 801.7 | 793.5 | 784.9
353.15 K, 30000 kPa | 838.2 | 831.6 | 825 | 818.9 | 813 | 805.9 | 797.6 | 789
353.15 K, 35000 kPa | 842.2 | 835.6 | 829.1 | 822.9 | 817 | 809.9 | 801.6 | 792.9
353.15 K, 40000 kPa | 846.1 | 839.4 | 833 | 826.8 | 820.8 | 813.7 | 805.4 | 796.6
353.15 K, 45000 kPa | 849.8 | 843.2 | 836.7 | 830.6 | 824.6 | 817.4 | 809.1 | 800.3
353.15 K, 50000 kPa | 853.3 | 846.8 | 840.3 | 834.2 | 828.1 | 820.9 | 812.5 | 803.7
353.15 K, 55000 kPa | 856.7 | 850.2 | 843.8 | 837.6 | 831.6 | 824.4 | 815.8 | 807
353.15 K, 60000 kPa | 860.1 | 853.6 | 847.2 | 840.9 | 835 | 827.7 | 818.9 | 810.3
353.15 K, 65000 kPa | 863.5 | 856.8 | 850.4 | 844.2 | 838.3 | 830.9 | 822.5 | 813.6
